Experiments:
[1] = molecular target: T1, Mcl-1/Puma interaction (Homo sapiens, UniProt Q07820); assay: BRET assay, Mcl-1/Puma interaction; format: cell-based; details: BRET in Hela cells, 16 hours
T1 construct: expressed in transfected cells; host or cells: HeLa cells
Procedure: Hela cells were seeded on 6-well plates and transfected with 200 ng/well of plasmid pRLuc-Bax, pRLuc-Puma or pRLuc-Noxa coding for BRET donors and 1 µg/well of peYFP-Bcl-xL or peYFP-Mcl-1 coding for BRET acceptors (or with pCMV-Bcl-xL or pCMV-Mcl-1 for control). Twenty-four hours after transfection, cells were trypsinized and re-seeded into white 96 well plate flat bottom, incubated for another day, and then treated with drugs for 16 hours at 10 μM. Light emission at 485 nm and 530 nm was measured consecutively using the Mithras fluorescence-luminescence detector LB 940 (Berthold) after adding the luciferase substrate, coelenterazine H (Uptima) at a final concentration of 5 μM. BRET ratios were calculated as described [Terrillon et al. (2003) Mol Endocrinol 17, 677-691, Vo et al. (2012) Eur J Med Chem., 286-93].

[2] = test system: IGROV1-R10 ovarian cancer cells; assay: DNA content histograms (sub-G1) by flow cytometry; format: cell-based
Procedure: Exponentially growing cells were transfected by siRNA as described below, and after 48 h, cells were continuously exposed to (Het)aromatic oligosystems (10, 25 or 50 μM) dissolved in DMSO (<0.1% of total volume) for 4 to 24 supplementary hours.
Cells were seeded in 25 cm^2 flasks the day before to reach 30-50% confluency at the time of transfection. The transfection INTERFERin™ reagent (Polyplus Transfection, Strasbourg. France) was added to siRNA diluted in Opti-MEM® reduced serum medium (Invitrogen, Cergy-Pontoise, France) and complexes formation was allowed to proceed for 15 min at RT before being applied to cells. […]
(§1) Adherent and floating cells were pooled, washed with 1×PBS and centrifuged at 200 g for 5 min before staining by Annexin V, propidium iodide or both, as recommended by the manufacturer (Roche Diagnostic, Indianapolis, USA). Briefly, 100 μl of Annexin V—Flit or propidium iodide or both were added on the cells pellet (10^6 cells) and incubated 15 minutes at room temperature in obscurity. 500 μl of sample buffer was then added on the suspensions that were thereafter analyzed using a Gallios flow cytometer (Beckman Coulter, Roissy, France) and cell cycle distribution was determined using Kaluza acquisition software (Beckman Coulter).

[3] = test system: SKOV3 chemoresistant ovarian cancer cells; assay: Pyridoclax / ABT-737 association, apoptotic cell death; format: cell-based, human
Procedure: (§2) FIG. 4 represents the effect of the association of Pyridoclax with ABT-737 on chemoresistant ovarian cancer cells IGROV1-R10 (top) and SKOV3 (bottom). Cells were concomitantly (A, E) or sequentially (B) exposed to 25 μM Pyridoclax and 5 μM ABT-737, and cellular effects were assessed either longitudinally (A, B, E) or after 24 h (C, D, F). [A, B, E] real time cellular activity assessed by impedancmetry (xCELLigence technology), after concomitant exposure (A, E) or sequential exposure (B; 24 h Pyridoclax, then ABT-737). [C]: Cellular morphology and DNA content histograms after a 24 h concomitant exposure. [D and F]: PARP and caspase 3 cleavage after a 24 h concomitant exposure.
as §1
Cells were rinsed with ice-cold PBS, suspended in a lysis buffer [RIPA:NaCl 150 mM, Tris (pH 8) 50 mM, Triton X100 1%, PMSF 4 mM, EDTA 5 mM, NaF 10 mM, NaPPi 10 mM, Na3OV4 1 mM, aprotinin 0.5 μl/ml and 4.6 ml ultra pure water] and incubated on ice for 30 minutes. Lysates were collected after centrifugation (13200 g, 10 min, 4° C.) and protein concentrations were determined using the Bradford assay (Bio-Rad, Hercules, USA). 20 μg of protein were separated by SDS-PAGE on a 4-12% gradient polyacrylamide gel (Invitrogen, Cergy-Pontoise, France) and transferred to Hybond-PVDF membranes (Amersham, Orsay, France). […]

[4] = test system: SKOV3 chemoresistant ovarian cancer cells; assay: Real-time cellular activity by impedancemetry (xCELLigence); format: cell-based, human; details: SKOV3, 25 μM Pyridoclax + 5 μM ABT-737
Procedure: as §2
Compound-mediated cytotoxicity was monitored using Real-Time Cell Analyzer multi-plate (RTCA MP) Instrument, xCELLigence System (Roche Applied Science, Mannheim, Germany). This system monitors cellular events in real time measuring electrical impedance across interdigitated micro-electrodes integrated on the bottom of tissue culture E-plates View (Roche). […] Thus, this index reflects changes in cell viability as described by Ke et al. (2011, Methods Mol Biol 740, 33-43). […] Impedance was continuously measured until the end of the treatment. Standard deviations of well replicates were analyzed with the RTCA Software.

T1 sequence (Q07820 whole entry): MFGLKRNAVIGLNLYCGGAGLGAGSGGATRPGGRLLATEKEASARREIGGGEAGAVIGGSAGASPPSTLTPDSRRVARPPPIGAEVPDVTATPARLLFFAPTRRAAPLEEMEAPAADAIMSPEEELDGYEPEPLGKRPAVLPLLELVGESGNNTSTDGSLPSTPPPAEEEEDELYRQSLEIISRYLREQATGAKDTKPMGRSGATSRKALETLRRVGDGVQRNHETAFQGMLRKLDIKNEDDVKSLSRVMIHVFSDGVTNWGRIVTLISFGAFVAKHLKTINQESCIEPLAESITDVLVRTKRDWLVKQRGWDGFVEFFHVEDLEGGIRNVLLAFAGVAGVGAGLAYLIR

effect on Mcl-1/Puma interaction ([1]; 10 μM): able to disrupt | inhibition at 10 µM [1]: ~50%
Compound: Cc1cc(-c2ncc(-c3cccnc3)cc2/C=C/c2ccccc2)cnc1-c1cccnc1 [Pyridoclax, 5,6′-di(pyridin-3-yl)-5′-methyl-3-((E)-styryl)-2,3′-bipyridine]
sub-G1 Peak on the DNA content histogram ([2]; IGROV1-R10, 10 nM siXL1 48 h then 25 μM Pyridoclax 24 h): over 50% | time after beginning of exposure at which apoptosis was observed ([2]; IGROV1-R10, siXL1 + Pyridoclax): 2 to 4 h | events in sub-G1 fraction ([2]; IGROV1-R10, siXL1 + Pyridoclax, after 4 h exposure): 37% | Sub-G1 (%) ([2]; Molecule + Bcl-xL targeting siRNA): 53.6% | cell death, combination with ABT-737 ([3]; SKOV3, 25 μM Pyridoclax + 5 μM ABT-737): massive apoptotic cell death | cell death as single agent ([3]; SKOV3, single agent): neither ABT-737 nor Pyridoclax induced cell death as single agents | cellular activity (impedancemetry) [4]: drastically decreased

Source: US10307410B2, “Mcl-1 modulating compounds for cancer treatment” (CENTRE REGIONAL DE LUTTE CONTRE LE CANCER FRANCOIS BACLESSE, priority 2014, dated 2019)
